The IC50 is the concentration at which inhibition is half-maximal.

One assay has as its target T1, human NOX3 (hNOX3) (Homo sapiens, UniProt Q9HBY0).
T1 construct: pLV-CMV-hNOX3-puro (NM_015718.3); host or cells: HEK293 (CLS GmbH), lentiviral transduction
T1 sequence (Q9HBY0 1-568): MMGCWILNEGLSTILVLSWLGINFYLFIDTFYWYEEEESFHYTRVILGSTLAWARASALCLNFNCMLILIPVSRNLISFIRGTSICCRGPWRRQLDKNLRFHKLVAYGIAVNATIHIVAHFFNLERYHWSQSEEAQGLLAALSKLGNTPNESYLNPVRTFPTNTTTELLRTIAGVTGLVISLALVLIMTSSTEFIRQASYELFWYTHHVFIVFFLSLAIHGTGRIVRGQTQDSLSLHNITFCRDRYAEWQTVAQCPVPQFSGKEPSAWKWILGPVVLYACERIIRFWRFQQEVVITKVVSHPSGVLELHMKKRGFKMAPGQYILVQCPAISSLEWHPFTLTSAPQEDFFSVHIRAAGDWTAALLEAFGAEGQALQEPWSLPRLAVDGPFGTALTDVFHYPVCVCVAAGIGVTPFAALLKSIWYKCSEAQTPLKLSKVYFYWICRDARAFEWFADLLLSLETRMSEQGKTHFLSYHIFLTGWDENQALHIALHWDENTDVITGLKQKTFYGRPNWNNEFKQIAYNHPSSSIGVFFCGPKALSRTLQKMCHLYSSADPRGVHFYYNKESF
T1 sequence (P13498 2-195 partner limits assumed): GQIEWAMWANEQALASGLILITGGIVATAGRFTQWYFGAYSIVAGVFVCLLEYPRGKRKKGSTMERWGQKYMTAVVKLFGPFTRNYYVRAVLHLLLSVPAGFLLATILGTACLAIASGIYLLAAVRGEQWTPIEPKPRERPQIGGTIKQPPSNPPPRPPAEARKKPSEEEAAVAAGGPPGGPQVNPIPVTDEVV
Put plainly: NOX3 inhibition assay (L-012), HEK293 cells stably overexpressing human NOX3. The format is cell-based. Conditions: HEK293-hNOX3, PMA stimulated. The source says: (§1) Plasmids are Purchased from Vectorbuilder. • for HEK-hNOX1 all necessary subunits are cloned accordingly: • pLV-CMV-hNOX1-puro (NM_007052.5) • pLV-CMV-hNOXO1-blas (NM_172168.3) • pLV-CMV-hp22phox-hygro (NM_000101.4) • pLV-CMV-hNOXA1-neo (NM_006647.2) • for HEK-hNOX3 • pLV-CMV-hNOX3-puro (NM_015718.3)
(§2) 3rd generation lentiviral particles are produced in HEK293 suspension cells by transient transfection of three helper and expression plasmids. Crucial lentivirus supernatants are harvested, clarified by filtration and concentrated by precipitation. Lentivirus titers are determined in transducing units in (TU/mL) by transduction of HT1080 cells and colony forming assay. Parental HEK293 cells, purchased from CLS GmbH, are transduced with replication-incompetent 3rd generation lentiviral particles (MOI 2) and expanded for at least 2 weeks before cryopreservation of tested lots. During cultivation, medium is changed three times per week and cells are sub-cultured at least once per week. Selection antibiotics are added according to the plasmids (1 μg/ml puromycin, 1.5 μg/ml blasticidin, 200 μg/ml G418 and 100 μg/ml hygromycin).
Evaluation of the NOX4 inhibitors on NOX3 activity is assessed in HEK293 cells stably overexpressing human NOX3 (hNOX3).
Cells are seeded in 384 well plates for 2 days. […] Cells are then stimulated with PMA at 0.1 μM to induce NOX3-dependent ROS production. […] Luminescence is measured with an PHERAstar multimode reader.

The target of a further assay is T2, human NOX1 (hNOX1) (Homo sapiens, UniProt Q9Y5S8).
T2 construct: pLV-CMV-hNOX1-puro (NM_007052.5); host or cells: HEK293 (CLS GmbH), lentiviral transduction
T2 sequence (Q9Y5S8 1-564): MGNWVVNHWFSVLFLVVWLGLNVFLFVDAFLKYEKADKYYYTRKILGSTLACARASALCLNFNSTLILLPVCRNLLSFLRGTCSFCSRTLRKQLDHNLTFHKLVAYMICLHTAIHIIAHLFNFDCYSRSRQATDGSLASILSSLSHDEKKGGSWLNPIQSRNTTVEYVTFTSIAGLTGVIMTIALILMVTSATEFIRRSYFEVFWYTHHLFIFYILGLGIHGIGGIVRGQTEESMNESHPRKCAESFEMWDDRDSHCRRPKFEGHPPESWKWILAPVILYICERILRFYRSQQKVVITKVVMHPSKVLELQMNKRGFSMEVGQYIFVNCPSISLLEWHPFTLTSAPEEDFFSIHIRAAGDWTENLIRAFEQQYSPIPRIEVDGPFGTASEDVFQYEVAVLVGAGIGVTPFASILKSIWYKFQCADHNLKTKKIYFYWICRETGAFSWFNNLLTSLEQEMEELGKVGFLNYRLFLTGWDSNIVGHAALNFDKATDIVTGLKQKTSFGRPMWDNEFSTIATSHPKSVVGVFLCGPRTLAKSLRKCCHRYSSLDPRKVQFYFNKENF
T2 sequence (P13498 2-195 partner limits assumed): T1 sequence (P13498 2-195 partner limits assumed)
The assay can be described thus: NOX1 inhibition assay (L-012), HEK293 cells stably overexpressing human NOX1. The note with it: HEK293-hNOX1, PMA stimulated. The format is cell-based.
Description: as §1, §2
Evaluation of the NOX4 inhibitors on NOX1 activity is assessed in HEK293 cells stably overexpressing human NOX1 (hNOX1).
Lastly, 8-amino-5-chloro-2,3-dihydro-7-phenyl-pyrido[3,4-d]pyridazine-1,4-dione sodium salt (L-012, CAS 143556-24-5) is added at 400 μM to all wells, and cells are incubated in an incubator for an additional 3 h. Afterwards luminescence is measured with a SpectraMax Paradigm Microplate Reader.

For `O=c1c2scnc2nc(SCc2ccc(Br)cc2F)n1-c1cnc(O)c(F)c1` [Example 34], the IC50 amounted to 63.6 µM against human NOX3 (hNOX3) and 14.7 µM against human NOX1 (hNOX1).

In the case of `O=c1c2scnc2nc(SCc2ccc(Cl)cc2F)n1-c1cnc(O)c(F)c1` [Example 35], the 50% inhibitory concentration (IC50) was 39.9 µM on human NOX3 (hNOX3) and above 100 µM on human NOX1 (hNOX1).

Turning to `Cc1cc(F)ccc1CSc1nc2ncsc2c(=O)n1-c1cnc(O)c(F)c1` [Example 36], the half-maximal inhibitory concentration (IC50) at human NOX3 (hNOX3) is 87.9 µM; at human NOX1 (hNOX1), above 100 µM.

For the compound `Cc1cc(Cl)ccc1CSc1nc2ncsc2c(=O)n1-c1cnc(O)c(F)c1` [Example 37], the half-maximal inhibitory concentration (IC50) was 70.4 µM on human NOX3 (hNOX3) and 18.8 µM at human NOX1 (hNOX1).

On to `O=c1c2scnc2nc(SCc2ccc(F)cc2F)n1-c1cnc(O)c(F)c1` [Example 38], for which the IC50 against human NOX3 (hNOX3) and against human NOX1 (hNOX1) was above 100 µM in each case.

Consider `O=c1c2scnc2nc(SCc2ccc(Cl)cc2Cl)n1-c1cnc(O)c(F)c1` [Example 39], for which the IC50 was found to be 56.2 µM at human NOX3 (hNOX3) and 24.5 µM against human NOX1 (hNOX1).

For `Cc1c(F)cccc1CSc1nc2ncsc2c(=O)n1-c1cnc(O)c(F)c1` [Example 40], the values for the concentration for half-maximal inhibition (IC50) at human NOX3 (hNOX3) and on human NOX1 (hNOX1) were 39.2 µM and 32.9 µM, respectively.

For the compound `O=c1c2scnc2nc(SCc2c(F)cc(F)cc2Cl)n1-c1cnc(O)c(F)c1` [Example 41], the values for the IC50 on human NOX3 (hNOX3) and on human NOX1 (hNOX1) were 32.3 µM and 9.8 µM, respectively.

Consider `O=c1c2scnc2nc(SCc2ccc(C(F)(F)F)cc2F)n1-c1cnc(O)c(F)c1` [Example 42], for which the IC50 came out at 46.4 µM on human NOX3 (hNOX3) and 5.6 µM on human NOX1 (hNOX1).

With `Cc1cc(F)cc(C)c1CSc1nc2ncsc2c(=O)n1-c1cnc(O)c(F)c1` [Example 43], the IC50 on human NOX3 (hNOX3) and on human NOX1 (hNOX1) was above 100 µM in each case.

As for `O=c1c2scnc2nc(SCc2ccc(F)cc2Br)n1-c1cnc(O)c(F)c1` [Example 44], the IC50 on human NOX3 (hNOX3) was 73.1 µM; against human NOX1 (hNOX1), 43.2 µM.

Regarding `O=c1c2scnc2nc(SCc2c(F)ccc(F)c2F)n1-c1cnc(O)c(F)c1` [Example 45], the IC50 against human NOX3 (hNOX3) was 71.5 µM; against human NOX1 (hNOX1), 30.9 µM.

In the case of `O=c1c2scnc2nc(SCc2ccc(C(F)(F)F)cc2Cl)n1-c1cnc(O)c(F)c1` [Example 46], the values for the IC50 against human NOX3 (hNOX3) and on human NOX1 (hNOX1) were 56.4 µM and 48.4 µM, respectively.

For `N#Cc1cc(-n2c(SCc3c(F)cc(F)cc3F)nc3ncsc3c2=O)cnc1O` [Example 47, 2-Hydroxy-5-(7-oxo-5-((2,4,6-trifluorobenzyl)thio)thiazolo[4,5-d]pyrimidin-6(7H)-yl)-nicotinonitrile], the IC50 is 18.8 µM on human NOX3 (hNOX3) and 4.9 µM against human NOX1 (hNOX1).

Take `O=c1c2scnc2nc(SCc2c(F)cc(F)cc2F)n1-c1cnc(O)c(Cl)c1` [Example 48, 6-(5-Chloro-6-hydroxypyridin-3-yl)-5-((2,4,6-trifluorobenzyl)thio)thiazolo[4,5-d]pyri-midin-7(6H)-one]: the IC50 against human NOX3 (hNOX3) was above 100 µM; against human NOX1 (hNOX1), 36.7 µM.

For the compound `O=c1c2scnc2nc(SCc2c(F)cc(F)cc2F)n1-c1cnc(O)cc1F` [Example 49, 6-(4-Fluoro-6-hydroxypyridin-3-yl)-5-((2,4,6-trifluorobenzyl)thio)thiazolo[4,5-d]pyrimidin-7(6H)-one], the IC50 at human NOX3 (hNOX3) and at human NOX1 (hNOX1) was above 100 µM in each case.

Consider `O=c1c2scnc2nc(SCc2c(F)cc(F)cc2F)n1-c1ccc(O)nc1F` [Example 50, 6-(2-Fluoro-6-hydroxypyridin-3-yl)-5-((2,4,6-trifluorobenzyl)thio)thiazolo[4,5-d]-pyrimidin-7(6H)-one], for which the figures for the IC50 at human NOX3 (hNOX3) and on human NOX1 (hNOX1) were 64.7 µM and 27.6 µM, respectively.

Take `O=c1c2scnc2nc(SCc2c(F)cc(F)cc2F)n1-c1cc(F)c(O)nc1F` [Example 51, 6-(2,5-Difluoro-6-hydroxypyridin-3-yl)-5-((2,4,6-trifluorobenzyl)thio)thiazolo[4,5-d]-pyrimidin-7(6H)-one]: the IC50 against human NOX3 (hNOX3) is 6.4 µM; on human NOX1 (hNOX1) it was 3 µM.

Regarding `O=c1c2scnc2nc(SCc2c(F)cc(F)cc2F)n1-c1cnc(O)c(F)c1F` [Example 52, 6-(4,5-Difluoro-6-hydroxypyridin-3-yl)-5-((2,4,6-trifluorobenzyl)thio)thiazolo[4,5-d]-pyrimidin-7(6H)-one], the IC50 on human NOX3 (hNOX3) is 15.5 µM; on human NOX1 (hNOX1) it was 21.2 µM.

As for `O=c1c2scnc2nc(SCc2ccc(Cl)cc2F)n1-c1cnc(O)nc1` [Example 53, 5-((4-Chloro-2-fluorobenzyl)thio)-6-(2-hydroxypyrimidin-5-yl)thiazolo[4,5-d]pyrimidin-7(6H)-one], the IC50 against human NOX3 (hNOX3) and against human NOX1 (hNOX1) was above 100 µM in each case.

Consider `Cc1cc(F)cc(C)c1CSc1nc2ncsc2c(=O)n1-c1cnc(O)nc1` [Example 55], for which the figures for the IC50 at human NOX3 (hNOX3) and at human NOX1 (hNOX1) were above 100 µM and 16.5 µM, respectively.

`O=c1c2scnc2nc(SCc2ccc(Cl)cc2)n1-c1cnc(O)nc1` [Example 56]: the IC50 at human NOX3 (hNOX3) is above 100 µM; at human NOX1 (hNOX1), 2.7 µM.

With `Cc1cc(F)ccc1CSc1nc2ncsc2c(=O)n1-c1cnc(O)nc1` [Example 58], the IC50 on human NOX3 (hNOX3) is above 100 µM; against human NOX1 (hNOX1) it was 11.8 µM.

For `O=c1c2scnc2nc(SCc2c(F)cc(F)cc2F)n1-c1cnc(O)nc1` [Example 59], the half-inhibitory concentration (IC50) is above 100 µM at human NOX3 (hNOX3) and 21 µM on human NOX1 (hNOX1).

Regarding `O=c1c2scnc2nc(SCc2ccc(C(F)(F)F)cc2)n1-c1cnc(O)nc1` [Example 60], the IC50 at human NOX3 (hNOX3) and on human NOX1 (hNOX1) was above 100 µM throughout.

`O=c1c2scnc2nc(SCc2ccc(Cl)cc2F)n1-c1ccc(O)nn1` [Example 61, 5-((4-Chloro-2-fluorobenzyl)thio)-6-(6-hydroxypyridazin-3-yl)thiazolo[4,5-d]pyrimidin-7(6H)-one]: the IC50 on human NOX3 (hNOX3) was 28.2 µM; against human NOX1 (hNOX1) it was above 100 µM.

Consider `Cc1cc(Cl)ccc1CSc1nc2ncsc2c(=O)n1-c1ccc(O)nn1` [Example 62], for which the IC50 on human NOX3 (hNOX3) and on human NOX1 (hNOX1) was above 100 µM in each case.

Turning to `Cc1cc(F)cc(C)c1CSc1nc2ncsc2c(=O)n1-c1ccc(O)nn1` [Example 63], the results for the half-maximal inhibitory concentration (IC50) against human NOX3 (hNOX3) and on human NOX1 (hNOX1) were above 100 µM and 43.4 µM, respectively.

As to `O=c1c2scnc2nc(SCc2ccc(Cl)cc2)n1-c1ccc(O)nn1` [Example 64], the IC50 on human NOX3 (hNOX3) and at human NOX1 (hNOX1) was above 100 µM throughout.

For `O=c1c2scnc2nc(SCc2ccc(C(F)(F)F)cc2F)n1-c1ccc(O)nn1` [Example 65], the results for the IC50 against human NOX3 (hNOX3) and on human NOX1 (hNOX1) were 83.4 µM and above 100 µM, respectively.

`O=c1c2scnc2nc(SCc2ccc(C(F)(F)F)cc2)n1-c1ccc(O)nn1` [Example 66]: the IC50 against human NOX3 (hNOX3) and against human NOX1 (hNOX1) was above 100 µM throughout.

For `O=c1c2scnc2nc(SCc2c(F)cc(F)cc2F)n1-c1ccc(O)nn1` [Example 67], the IC50 against human NOX3 (hNOX3) and on human NOX1 (hNOX1) was above 100 µM throughout.

These data come from patent US20240327429A1, “[1,3]Thiazolo[4,5-d]-pyrimidon-7-ones as inhibitors of NOX4” (Boehringer Ingelheim International GmbH, priority 2023, published 2024).
